According to patent publication US11168093B2, “Thienopyridine inhibitors of RIPK2” (Celgene Corporation, priority 2018, dated 2021):

Target: RIPK2 enzyme (Homo sapiens (Human), UniProt O43353)
Assay: RIPK2 inhibition assay, TR-FRET LanthaScreen Tracer 199 screening assay
Format: binding
Settings: 5 nM RIPK2 enzyme, Tracer 199 at 50 nM, Eu-anti-His Antibody at 2 nM, 1 hour incubation
Procedure, shortened: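 TR-FRET binding displacement: 5 nM RIPK2, 50 nM Tracer 199, 2 nM Eu-anti-His antibody in 1× kinase reaction buffer, 1 h, read at room temperature (340 ex/665 and 615 em). No-enzyme background subtracted; percent inhibition versus uninhibited controls, IC50 from unconstrained variable-slope fit.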

Chain of RIPK2 enzyme (O43353 whole entry): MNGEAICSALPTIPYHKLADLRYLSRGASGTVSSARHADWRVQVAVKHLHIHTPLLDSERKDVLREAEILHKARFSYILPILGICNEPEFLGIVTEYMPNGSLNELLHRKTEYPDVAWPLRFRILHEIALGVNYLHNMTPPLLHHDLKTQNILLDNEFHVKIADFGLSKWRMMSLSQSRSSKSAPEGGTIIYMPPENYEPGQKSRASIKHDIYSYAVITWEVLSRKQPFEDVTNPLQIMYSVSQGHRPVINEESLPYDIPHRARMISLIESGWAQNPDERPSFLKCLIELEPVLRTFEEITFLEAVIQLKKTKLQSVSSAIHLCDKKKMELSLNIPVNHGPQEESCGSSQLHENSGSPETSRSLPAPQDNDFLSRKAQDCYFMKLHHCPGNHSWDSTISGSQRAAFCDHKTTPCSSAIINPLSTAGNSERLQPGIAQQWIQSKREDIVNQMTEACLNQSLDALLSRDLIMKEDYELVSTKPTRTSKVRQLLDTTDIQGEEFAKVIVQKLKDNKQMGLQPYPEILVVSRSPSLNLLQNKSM

Structure (SMILES) | IC50 [nM]
CCN1CCC[C@@H](c2cc3c(Nc4ccc5scnc5c4F)ccnc3s2)[C@H]1C [Example 64, N-(2-((2R,3R)-1-ethyl-2-methylpiperidin-3-yl)thieno[2,3-b]pyridin-4-yl)-4-fluorobenzo[d]thiazol-5-amine] | ≤ 10
CCN1CCC[C@H](c2cc3c(Nc4ccc5scnc5c4F)ccnc3s2)[C@@H]1C [Example 65, N-(2-((2S,3S)-1-ethyl-2-methylpiperidin-3-yl)thieno[2,3-b]pyridin-4-yl)-4-fluorobenzo[d]thiazol-5-amine] | ≤ 10
C[C@H]1NCCC=C1c1cc2c(Nc3c(F)cc4scnc4c3F)ccnc2s1 [Example 66a, (R)-4,6-difluoro-N-(2-(2-methyl-1,2,5,6-tetrahydropyridin-3-yl)thieno[2,3-b]pyridin-4-yl)benzo[d]thiazol-5-amine] | ≤ 10
C[C@@H]1NCCC=C1c1cc2c(Nc3c(F)cc4scnc4c3F)ccnc2s1 [Example 66b, (S)-4,6-difluoro-N-(2-(2-methyl-1,2,5,6-tetrahydropyridin-3-yl)thieno[2,3-b]pyridin-4-yl)-benzo[d]thiazol-5-amine] | ≤ 10
C[C@H]1NCCC[C@@H]1c1cc2c(Nc3c(F)cc4scnc4c3F)ccnc2s1 [Example 67a, 4,6-difluoro-N-(2-((2R,3S)-2-methylpiperidin-3-yl)thieno[2,3-b]pyridin-4-yl)benzo[d]thiazol-5-amine] | ≤ 10
C[C@H]1NCCC[C@H]1c1cc2c(Nc3c(F)cc4scnc4c3F)ccnc2s1 [Example 67b, 4,6-difluoro-N-(2-((2R,3R)-2-methylpiperidin-3-yl)thieno[2,3-b]pyridin-4-yl)benzo[d]thiazol-5-amine] | ≤ 10
C[C@@H]1C(c2cc3c(Nc4c(F)cc5scnc5c4F)ccnc3s2)=CCCN1C [Example 69, (R)—N-(2-(1,2-dimethyl-1,2,5,6-tetrahydropyridin-3-yl)thieno[2,3-b]pyridin-4-yl)-4,6-difluorobenzo[d]thiazol-5-amine] | ≤ 10
CC1NCCC1c1cc2c(Nc3cc4ncsc4cc3F)ccnc2s1 (stereo not drawn) [Example 75, 6-fluoro-N-(2-(2-methylpyrrolidin-3-yl)thieno[2,3-b]pyridin-4-yl)benzo[d]thiazol-5-amine] | ≤ 10
CCN1CCC(c2cc3c(Nc4cc5ncsc5cc4F)ccnc3s2)C1C (stereo not drawn) [Example 76, N-(2-(1-ethyl-2-methylpyrrolidin-3-yl)thieno[2,3-b]pyridin-4-yl)-6-fluorobenzo[d]thiazol-5-amine] | 10 to 20
CC1C(c2cc3c(Nc4cc5ncsc5cc4F)ccnc3s2)CCN1CCO (stereo not drawn) [Example 77, 2-(3-(4-((6-fluorobenzo[d]thiazol-5-yl)amino)thieno[2,3-b]pyridin-2-yl)-2-methylpyrrolidin-1-yl)ethan-1-ol] | 10 to 20
CCN1CCC(c2cc3c(Nc4cc5ncsc5cc4F)ccnc3s2)C1(C)C (stereo not drawn) [Example 79, N-(2-(1-ethyl-2,2-dimethylpyrrolidin-3-yl)thieno[2,3-b]pyridin-4-yl)-6-fluorobenzo[d]thiazol-5-amine] | 20 to 50
CC1(C)C(c2cc3c(Nc4cc5ncsc5cc4F)ccnc3s2)CCN1CCO (stereo not drawn) [Example 80, 2-(3-(4-((6-fluorobenzo[d]thiazol-5-yl)amino)thieno[2,3-b]pyridin-2-yl)-2,2-dimethyl-pyrrolidin-1-yl)ethan-1-ol] | 20 to 50
Fc1cc2scnc2cc1Nc1ccnc2sc(C3CCNC34CCOC4)cc12 (stereo not drawn) [Example 81, N-(2-(7-oxa-1-azaspiro[4.4]nonan-4-yl)thieno[2,3-b]pyridin-4-yl)-6-fluorobenzo[d]thiazol-5-amine] | ≥ 50
CN1CCC(c2cc3c(Nc4cc5ncsc5cc4F)ccnc3s2)C12CCOC2 (stereo not drawn) [Example 82, 6-fluoro-N-(2-(1-methyl-7-oxa-1-azaspiro[4.4]nonan-4-yl)thieno[2,3-b]pyridin-4-yl)benzo[d]thiazol-5-amine] | ≥ 50
CCN1CCC(c2cc3c(Nc4cc5ncsc5cc4F)ccnc3s2)C12CCOC2 (stereo not drawn) [Example 83, N-(2-(1-ethyl-7-oxa-1-azaspiro[4.4]nonan-4-yl)thieno[2,3-b]pyridin-4-yl)-6-fluorobenzo[d]thiazol-5-amine] | ≥ 50
Fc1cc2scnc2cc1Nc1ccnc2sc(C3CCNC34CCOCC4)cc12 (stereo not drawn) [Example 84, N-(2-(8-oxa-1-azaspiro[4.5]decan-4-yl)thieno[2,3-b]pyridin-4-yl)-6-fluorobenzo[d]thiazol-5-amine] | ≥ 50
CN1CCC(c2cc3c(Nc4cc5ncsc5cc4F)ccnc3s2)C12CCOCC2 (stereo not drawn) [Example 85, 6-fluoro-N-(2-(1-methyl-8-oxa-1-azaspiro[4.5]decan-4-yl)thieno[2,3-b]pyridin-4-yl)benzo[d]thiazol-5-amine] | ≥ 50
CCN1CCC(c2cc3c(Nc4cc5ncsc5cc4F)ccnc3s2)C12CCOCC2 (stereo not drawn) [Example 86, N-(2-(1-ethyl-8-oxa-1-azaspiro[4.5]decan-4-yl)thieno[2,3-b]pyridin-4-yl)-6-fluorobenzo[d]thiazol-5-amine] | ≥ 50
CC1NCCC1c1cc2c(Nc3ccc4scnc4c3F)ccnc2s1 (stereo not drawn) [Example 87, 4-fluoro-N-(2-(2-methylpyrrolidin-3-yl)thieno[2,3-b]pyridin-4-yl)benzo[d]thiazol-5-amine] | ≤ 10
CCN1CCC(c2cc3c(Nc4ccc5scnc5c4F)ccnc3s2)C1C (stereo not drawn) [Example 88, N-(2-(1-ethyl-2-methylpyrrolidin-3-yl)thieno[2,3-b]pyridin-4-yl)-4-fluorobenzo[d]thiazol-5-amine] | ≤ 10
CC1C(c2cc3c(Nc4ccc5scnc5c4F)ccnc3s2)CCN1CCO (stereo not drawn) [Example 89, 2-(3-(4-((4-fluorobenzo[d]thiazol-5-yl)amino)thieno[2,3-b]pyridin-2-yl)-2-methylpyrrolidin-1-yl)ethan-1-ol] | ≤ 10
CC1(C)NCCC1c1cc2c(Nc3ccc4scnc4c3F)ccnc2s1 (stereo not drawn) [Example 90, N-(2-(2,2-dimethylpyrrolidin-3-yl)thieno[2,3-b]pyridin-4-yl)-4-fluorobenzo[d]thiazol-5-amine] | ≤ 10
CCN1CCC(c2cc3c(Nc4ccc5scnc5c4F)ccnc3s2)C1(C)C (stereo not drawn) [Example 91, N-(2-(1-ethyl-2,2-dimethylpyrrolidin-3-yl)thieno[2,3-b]pyridin-4-yl)-4-fluorobenzo[d]thiazol-5-amine] | 10 to 20
CC1(C)C(c2cc3c(Nc4ccc5scnc5c4F)ccnc3s2)CCN1CCO (stereo not drawn) [Example 92, 2-(3-(4-((4-fluorobenzo[d]thiazol-5-yl)amino)thieno[2,3-b]pyridin-2-yl)-2,2-dimethylpyrrolidin-1-yl)ethan-1-ol] | ≤ 10
CC1NCCC1c1cc2c(Nc3c(F)cc4scnc4c3F)ccnc2s1 (stereo not drawn) [Example 93, 4,6-difluoro-N-(2-(2-methylpyrrolidin-3-yl)thieno[2,3-b]pyridin-4-yl)benzo[d]thiazol-5-amine] | ≤ 10
CCN1CCC(c2cc3c(Nc4c(F)cc5scnc5c4F)ccnc3s2)C1C (stereo not drawn) [Example 94, N-(2-(1-ethyl-2-methylpyrrolidin-3-yl)thieno[2,3-b]pyridin-4-yl)-4,6-difluorobenzo[d]thiazol-5-amine] | ≤ 10

More lines, now with the values ahead:

IC50 [nM] | Structure (SMILES)
10 to 20 | C[C@@H]1NCCC[C@H]1c1cc2c(Nc3c(F)cc4scnc4c3F)ccnc2s1 [Example 68a, 4,6-difluoro-N-(2-((2S,3R)-2-methylpiperidin-3-yl)thieno[2,3-b]pyridin-4-yl)benzo[d]thiazol-5-amine]
≤ 10 | C[C@@H]1NCCC[C@@H]1c1cc2c(Nc3c(F)cc4scnc4c3F)ccnc2s1 [Example 68b, 4,6-difluoro-N-(2-((2S,3S)-2-methylpiperidin-3-yl)thieno[2,3-b]pyridin-4-yl)benzo[d]thiazol-5-amine]
≤ 10 | C[C@@H]1[C@H](c2cc3c(Nc4c(F)cc5scnc5c4F)ccnc3s2)CCCN1C [Example 70b, N-(2-((2R,3R)-1,2-dimethylpiperidin-3-yl)thieno[2,3-b]pyridin-4-yl)-4,6-difluorobenzo[d]-thiazol-5-amine]
≤ 10 | C[C@H]1[C@H](c2cc3c(Nc4c(F)cc5scnc5c4F)ccnc3s2)CCCN1C [Example 71a, N-(2-((2S,3R)-1,2-dimethylpiperidin-3-yl)thieno[2,3-b]pyridin-4-yl)-4,6-difluorobenzo[d]thiazol-5-amine]
≤ 10 | C[C@H]1[C@@H](c2cc3c(Nc4c(F)cc5scnc5c4F)ccnc3s2)CCCN1C [Example 71b, N-(2-((2S,3S)-1,2-dimethylpiperidin-3-yl)thieno[2,3-b]pyridin-4-yl)-4,6-difluorobenzo[d]thiazol-5-amine]
≤ 10 | CCN1CCC=C(c2cc3c(Nc4c(F)cc5scnc5c4F)ccnc3s2)[C@H]1C [Example 72a, (R)—N-(2-(1-ethyl-2-methyl-1,2,5,6-tetrahydropyridin-3-yl)thieno[2,3-b]-pyridin-4-yl)-4,6-difluorobenzo[d]thiazol-5-amine]
≤ 10 | CCN1CCC=C(c2cc3c(Nc4c(F)cc5scnc5c4F)ccnc3s2)[C@@H]1C [Example 72b, (S)—N-(2-(1-ethyl-2-methyl-1,2,5,6-tetrahydropyridin-3-yl)thieno[2,3-b]pyridin-4-yl)-4,6-difluorobenzo[d]thiazol-5-amine]
≤ 10 | CCN1CCC[C@@H](c2cc3c(Nc4c(F)cc5scnc5c4F)ccnc3s2)[C@H]1C [Example 73b, N-[2-((2R,3R)1-ethyl-2-methyl-3-piperidyl)thieno[2,3-b]pyridin-4-yl]-4,6-difluoro-1,3-benzothiazol-5-amine]
≤ 10 | CCN1CCC[C@H](c2cc3c(Nc4c(F)cc5scnc5c4F)ccnc3s2)[C@@H]1C [Example 74b, N-(2-((2S,3S)-1-ethyl-2-methylpiperidin-3-yl)thieno[2,3-b]pyridin-4-yl)-4,6-difluorobenzo[d]thiazol-5-amine]
≤ 10 | CC1(C)NCCC1c1cc2c(Nc3cc4ncsc4cc3F)ccnc2s1 (stereo not drawn) [Example 78a, N-(2-(2,2-dimethylpyrrolidin-3-yl)thieno[2,3-b]pyridin-4-yl)-6-fluorobenzo[d]thiazol-5-amine]
